# Results from patent US7935708B2, “Dihydropyrazolopyrimidinone derivatives” (MSD K.K., priority 2006, dated 2011).
# Key:
# [1] = system: Cdc2 (Cdk1) tyrosine 15 phosphorylation in NCI-H1299 cells; assay: Cdc2 (Cdk1) tyrosine 15-phosphorylation-inhibitory effect in camptothecin-treated NCI-H1299 cells (ELISA); assay type: cell-based; conditions: Homo sapiens, camptothecin 200 nM 16 hours, then test compound with nocodazole 8 hours, read-out: Cdc2-Y15 Phosphorylation-Inhibitory Effect (H1299, + camptothecin) (EC50)
# Text: (§1) Pharmaceutical Text 2 (Method of Determining Drug Potency in Cells (Cdc2 (Cdk1) Tyrosine 15-Phosphorylation-Inhibitory Effect))
# (§2) Fetal bovine serum (FBS) was obtained from Morgate; media RPMI1640 and DMEM were from Invitrogen; camptothecin was from Sigma; gemcitabine was from Nippon Eli Lilly; nocodazole and protease inhibitor cocktail were from Sigma; rabbit anti-Cdc2 antibody and mouse anti-Cdc2 antibody were from Santa Cruz Biotechnology; rabbit anti-tyrosine 15-phosphorylated Cdc2 antibody and horseradish peroxidase-labeled anti-mouse IgG antibody were from Cell Signaling Technology; sure blue reserve TMB peroxidase substrate was from Kirkegaard and Perry Laboratories.
# (§3) Human non-small cell lung cancer cells (NCI-H1299) and human colon cancer cells (WiDr) were obtained from American Type Culture Collection (ATCC).
# (§4) c) Method of Effect Determination:
# In the method of using NCI-H1299 cells, the cells were suspended in RPMI1640 containing 10% FBS, and the cell suspension was applied to a 96-well Nunclondelta-processed plastic plate (bought from Nunc), in an amount of 2000 cells/100 μL/well, in which the cells were incubated overnight in 5% CO2-95% air at 37° C. Camptothecin was dissolved in dimethylsulfoxide (DMSO), and diluted with RPMI1640 containing 10% FBS, and then this was applied to the plate on which the cells had been previously sowed, in an amount of 50 μL/well in such a manner that the final concentration of camptothecin could be 200 nM. Then, the cells were incubated for 16 hours at 37° C. in 5% CO2-95% air. The test compound was stepwise diluted with DMSO, then diluted with 4000 nM nocodazole-containing RPMI1640 containing 10% FBS, and applied to the plate on which the camptothecin-treated cells had been sowed, in an amount of 50 μL/well. The cells were incubated for 8 hours at 37° C. in 5% CO2-95% air, then the medium was removed, and a cytolytic buffer was added to the plate in an amount of 100 μL/well, shaken at 4° C. for 2 hours, then frozen at −80° C., and melted to give a cell solution. Cdc2 and tyrosine 15-phosphorylated Cdc2 in the cell solution were determined through enzyme-linked immunosorbent assay (ELISA), and the ratio of tyrosine 15-phosphorylated Cdc2 to Cdc2 was calculated to obtain the 50% phosphorylation-inhibitory concentration of the test compound to the cells (EC50, nM). The cytolytic buffer used herein is an aqueous solution containing 20 mM Hepes (pH 7.5), 150 mM sodium chloride, 1 mM disodium ethylenediaminetetraacetate, 0.1% polyoxyethylene (10) octylphenyl ether, 1% protease inhibitor cocktail, 1 mM dithiothreitol, 2 mM sodium orthovanadate, 10 mM sodium fluoride and 10 mM glycerol diphosphate. Cdc2 was determined through ELISA as follows: A rabbit anti-Cdc2 antibody solution, which had been diluted 200-fold with 50 mM carbonate-bicarbonate buffer (pH 9.6), was applied to a 96-well maxisorpimmuno plate (bought from Nunc), in an amount of 50 μL/well, and statically kept overnight at 4° C. so as to fix the antibody on the plate. Next, this was washed three times with phosphate-buffered saline (PBS), and 5% bovine serum albumin-containing PBS (5% BSA/PBS) was added thereto in an amount of 300 μL/well, and statically kept at room temperature for 2 hours, and then again washed three times with PBS. A mouse anti-Cdc2 antibody solution that had been diluted 100-fold with 0.05% polyoxyethylene sorbitan monolaurate and 1% BSA-containing Tris-HCl-buffered saline (1% BSA/TBS-T) was added to it in an amount of 50 μL/well, and the cell solution was added thereto in an amount of 5 μL/well and statically kept overnight at 4° C. Next, this was washed three times with 0.05% polyoxyethylene sorbitan monolaurate and 0.1% BSA-containing Tris-HCl-buffered saline (0.1% BSA/TBS-T), and then a horseradish peroxidase-labeled anti-mouse IgG antibody solution that had been diluted 2000-fold with 1% BSA/TBS-T was added thereto in an amount of 70 μL/well, and statically kept at room temperature for 3 hours. […]
# [2] = system: Cdc2 (Cdk1) tyrosine 15 phosphorylation in WiDr cells; assay: Cdc2 (Cdk1) tyrosine 15-phosphorylation-inhibitory effect in gemcitabine-treated WiDr cells (ELISA); assay type: cell-based; conditions: Homo sapiens, gemcitabine 100 nM 24 hours, then test compound with nocodazole 8 hours, read-out: Cdc2-Y15 Phosphorylation-Inhibitory Effect (WiDr, + gemcitabine) (EC50)
# Text: as §1, §2, §3, §4
# In the method of using WiDr cells, the cells were suspended in DMEM containing 10% FBS, and the cell suspension was applied to a 96-well Nunclondelta-processed plastic plate in an amount of 2000 cells/100 μL/well, in which the cells were incubated overnight in 5% CO2-95% air at 37° C. Gemcitabine was dissolved in PBS, and diluted with DMEM containing 10% FBS, and then this was applied to the plate on which the cells had been previously sowed, in an amount of 50 μL/well in such a manner that the final concentration of gemcitabine could be 100 nM. Then, the cells were incubated for 24 hours at 37° C. in 5% CO2-95% air. The test compound was stepwise diluted with DMSO, then diluted with 1200 nM nocodazole-containing DMEM containing 10% FBS, and applied to the plate on which the gemcitabine-treated cells had been sowed, in an amount of 50 μL/well. The cells were incubated for 8 hours at 37° C. in 5% CO2-95% air, then the culture was removed, and a cytolytic buffer was added to the plate in an amount of 100 μL/well, shaken at 4° C. for 2 hours, then frozen at −80° C., and melted to give a cell solution. Cdc2 and tyrosine 15-phosphorylated Cdc2 in the cell solution were determined through ELISA, and the ratio of tyrosine 15-phosphorylated Cdc2 to Cdc2 was calculated to obtain the 50% phosphorylation-inhibitory concentration of the test compound to the cells (EC50, nM). Cdc2 was determined through ELISA as follows: A rabbit anti-Cdc2 antibody solution, which had been diluted 200-fold with 50 mM carbonate-bicarbonate buffer (pH 9.6), was applied to a 96-well maxisorp plastic plate in an amount of 50 μL/well, and statically kept overnight at 4° C. so as to fix the antibody on the plate. Next, this was washed three times with PBS, and 5% BSA/PBS was added thereto in an amount of 300 μL/well, and statically kept at room temperature for 2 hours, and then again washed three times with PBS. A mouse anti-Cdc2 antibody solution that had been diluted 100-fold with 1% BSA/TBS-T was added to it in an amount of 50 μL/well, and the cell solution was added thereto in an amount of 10 μL/well and statically kept overnight at 4° C. Next, this was washed three times with 0.1% BSA/TBS-T, and then a horseradish peroxidase-labeled anti-mouse IgG antibody solution that had been diluted 2000-fold with 1% BSA/TBS-T was added thereto in an amount of 70 μL/well, and statically kept at room temperature for 3 hours. Finally, this was washed five times with 0.1% BSA/TBS-T, then a substrate of sure blue reserve TMB peroxidase was added to it in an amount of 100 μL/well, and left for coloration in a dark place at room temperature for 15 minutes. Then, 1 M hydrochloric acid was added to it in an amount of 100 μL/well to stop the reaction, and this was analyzed through colorimetry. […]
EC50 [1],EC50 [2],SMILES
61 nM,130 nM,"C=CCn1c(=O)c2cnc(Nc3ccc(N4CCN(C)CC4)c(CO)c3)nc2n1-c1ccsc1 [Example 3, 2-allyl-6-{[3-(hydroxymethyl)-4-(4-methylpiperazin-1-yl)phenyl]amino}-1-(3-thienyl)-1,2-dihydro-3H-pyrazolo[3,4-d]pyrimidin-3-one]"
79 nM,86 nM,"C=CCn1c(=O)c2cnc(Nc3ccc(N4CCN(C)CC4)cc3)nc2n1-c1cccc(N2CCN(C)C2=O)n1 [Example 148, 2-allyl-1-[6-(3-methyl-2-oxoimidazolidin-1-yl)pyridin-2-yl]-6-{[4-(4-methylpiperazin-1-yl)phenyl]amino}-1,2-dihydro-3H-pyrazolo[3,4-d]pyrimidin-3-one]"
